This is an account of results in patent US5658885A, “Amidino and guanidino substituted boronic acid inhibitors of trypsin-like enzymes” (The DuPont Merck Pharmaceutical Company, priority 1994, dated 1997).

Where a name gives a salt, the structure may show the parent alone.

Format in all cases: biochemical
Experiment [1] concerns the target T1, human thrombin (Homo sapiens, UniProt P00734).
T1 construct: 0.2-0.5 nM human thrombin or human factor Xa; purchased Enzyme Research Laboratories, South Bend, Ind
Nature of the experiment: Inhibition of thrombin hydrolysis of chromogenic substrate S2238 (Ki). The settings on record: S2238, pH 7.5. The procedure: (§1) The effectiveness of compounds of the present invention as inhibitors of blood coagulation proteases was determined using purified human proteases and synthetic substrates following procedures similar to those described in Kettner et al. (1990).
(§2) For these assays, the rate of enzymatic (thrombin, Factor Xa, and Factor VIIa) hydrolysis of chromogenic substrates (S2238 (H-D-Phe-Pip-Arg-pNA), S2222, and S2288, respectively; Kabi Pharmacia, Franklin, Ohio) was measured both in the absence and presence of compounds of the present invention. […] A decrease in the rate of absorbance change at 405 nm in the presence of inhibitor is indicative of enzyme inhibition. The results of this assay are expressed as inhibitory constant, Ki.
(§3) Thrombin and Xa determinations were made in 0.10M sodium phosphate buffer, pH 7.5, containing 0.20M NaCl, and 0.5% PEG 8000. VIIa determinations were made in 0.05M tris buffer, pH 7.6, containing 0.10M NaCl, 4 mM CaCl2, and 0.1% bovine serum albumin.
(§4) Reactions were allowed to go for 30 minutes and the velocities (rate of absorbance change vs time) were measured in the time frame of 25-30 minutes. The following relationship was used to calculate Ki values. [formula] where: vo is the velocity of the control in the absence of inhibitor;
(§5) vs is the velocity in the presence of inhibitor;
(§6) I is the concentration of inhibitor;
(§7) Ki is the dissociation constant of the enzyme: inhibitor complex;
(§8) S is the concentration of substrate;
(§9) Km is the Michaelis constant.

For experiment [2], the target named is T2, human factor Xa (Homo sapiens, UniProt P00742).
T2 construct: 0.2-0.5 nM human thrombin or human factor Xa; purchased Enzyme Research Laboratories, South Bend, Ind
Put plainly: Inhibition of Factor Xa hydrolysis of chromogenic substrate S2222 (Ki). The settings on record: S2222, pH 7.5. The procedure:
as §1, §2, §3, §4, §5, §6, §7, §8, §9

Experiment [3] addresses T3, human factor VIIa (Homo sapiens, UniProt P08709).
T3 construct: 50 nM human factor VIIa (BiosPacific, Emeryville, Calif.); purchased BiosPacific, Emeryville, Calif
T3 sequence (P08709 213-466 limits assumed): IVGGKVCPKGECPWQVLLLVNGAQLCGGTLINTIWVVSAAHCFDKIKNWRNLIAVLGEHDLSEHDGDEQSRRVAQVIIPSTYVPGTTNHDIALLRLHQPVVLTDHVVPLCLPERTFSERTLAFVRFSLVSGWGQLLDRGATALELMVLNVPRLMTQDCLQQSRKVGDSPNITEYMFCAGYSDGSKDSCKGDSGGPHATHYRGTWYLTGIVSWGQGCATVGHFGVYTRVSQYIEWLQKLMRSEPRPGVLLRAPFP
T3 sequence (P08709 61-212 limits assumed): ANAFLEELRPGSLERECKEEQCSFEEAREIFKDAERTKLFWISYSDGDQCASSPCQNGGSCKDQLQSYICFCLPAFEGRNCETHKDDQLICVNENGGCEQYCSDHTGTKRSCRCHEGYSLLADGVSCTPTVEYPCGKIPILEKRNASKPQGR
Put plainly: Inhibition of Factor VIIa hydrolysis of chromogenic substrate S2288 (Ki). Particulars: S2288, pH 7.6. The procedure: as §1, §2, §3, §4, §5, §6, §7, §8, §9

T2 sequence (P00742 235-488 limits assumed): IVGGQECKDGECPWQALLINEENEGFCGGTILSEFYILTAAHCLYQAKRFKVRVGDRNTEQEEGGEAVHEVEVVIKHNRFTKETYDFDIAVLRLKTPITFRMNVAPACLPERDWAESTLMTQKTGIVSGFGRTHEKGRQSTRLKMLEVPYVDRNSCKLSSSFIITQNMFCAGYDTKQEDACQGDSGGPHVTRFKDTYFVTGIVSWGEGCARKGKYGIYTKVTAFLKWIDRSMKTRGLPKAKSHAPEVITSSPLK
T2 sequence (P00742 41-179 limits assumed): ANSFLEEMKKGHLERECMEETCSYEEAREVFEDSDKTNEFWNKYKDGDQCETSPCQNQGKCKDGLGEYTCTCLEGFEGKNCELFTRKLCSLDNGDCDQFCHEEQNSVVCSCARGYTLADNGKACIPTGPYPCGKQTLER

For `CC1(C)C2CC3OB(C(Cc4cccc(C#N)c4)NC(=O)[C@@H]4CCCN4C(=O)[C@H](N)Cc4ccccn4)OC3(C)C1C2` (stereo partly shown) [Example 37, H--(D)2-Pyridylalanine-Pro--boroPhe(m-CN)--C10 H16.HCl], the Ki is less than 0.5 µM in experiment [1], less than 50 µM in experiment [2] and less than 0.5 µM in experiment [3].
On to `CC(=O)NCCCCC(NC(=O)C1CCCN1C(=O)CCc1ccccc1)B1OC2CC3CC(C3(C)C)C2(C)O1` (stereo not shown) [Example 136, Hydrocinnamoyl-ProboroGly[(CH2)4 --NH--Acetyl]C10 H16], for which the Ki in experiment [1] is less than 0.5 µM; in experiment [2] it was less than 50 µM; in experiment [3] it was less than 50 µM.
Turning to `CC1(C)C2CC3OB(C(Cc4cccc(C#N)c4)NC(=O)[C@@H]4CCCN4C(=O)[C@@H](Cc4ccccn4)NS(C)(=O)=O)OC3(C)C1C2` (stereo partly shown) [Example 39, Ms--(D)2-Pyridylalanine-Pro--boroPhe(m-CN)--C10 H16], the Ki in experiment [1], in experiment [2] and in experiment [3] was less than 0.5 µM each time.
As for `CC1(C)C2CC3OB(C(Cc4cccc(C#N)c4)NC(=O)[C@@H]4CCCN4C(=O)[C@H](N)Cc4cccs4)OC3(C)C1C2` (stereo partly shown) [Example 38, H--(D)2-Thienylalanine-Pro--boroPhe(m-CN)--C10 H16.HCl], the Ki in experiment [1] was less than 0.5 µM; in experiment [2] it was less than 50 µM; in experiment [3] it was less than 0.5 µM.
Consider `CC(C)(C)OC(=O)N[C@H](Cc1ccccn1)C(=O)N1CCCC1C(=O)NC(Cc1cccc(C#N)c1)B1OC2CC3CC(C3(C)C)C2(C)O1` (stereo partly shown) [Example 34, Boc--(D)2-Pyridylalanine-Pro--boroPhe(m-CN)--C10 H16], for which the Ki in experiment [1], in experiment [2] and in experiment [3] was less than 0.5 µM in each case.
For the compound `COCCCC(NC(=O)C1CCCN1C(=O)C(Cc1ccccc1)NCC(=O)O)B1OC2CC3CC(C3(C)C)C2(C)O1` (stereo not shown) [Example 140, HO2 CCH2 --(D)--Phe--Pro--boroGly[(CH2)3 --OCH3]--C10 H16], the Ki in experiment [1] is less than 0.5 µM; in experiment [3], less than 50 µM.
For `CC1(C)C2CC3OB(C(Cc4cccc(C#N)c4)NC(=O)C4CCCN4C(=O)C(Cc4cccs4)NS(C)(=O)=O)OC3(C)C1C2` (stereo not shown) [Example 40, Ms--(D)2-Thienylalanine-Pro--boroPhe(m-CN)--C10 H16], the Ki in experiment [1], in experiment [2] and in experiment [3] was less than 0.5 µM each time.
As for “Boc--(D)Phe--Pro--boroGly[(CH2)3 --ONH2 ]--OH.HCl [Example 102]”, the values for the Ki in experiment [1], in experiment [2] and in experiment [3] were less than 0.5 µM, less than 50 µM and less than 0.5 µM, respectively.
In the case of `COCCCC(NC(=O)[C@@H]1CCCN1C(=O)[C@@H](Cc1ccccc1)N(C)C)B1OC2CC3CC(C3(C)C)C2(C)O1` (stereo partly shown) [Example 141, N,N-dimethyl-(D)--Phe--Pro--boroGly[(CH2)3 --OCH3]--C10 H16], the Ki in experiment [1] was less than 0.5 µM; in experiment [2] it was less than 50 µM; in experiment [3], less than 50 µM.
In the case of `CC(C)(C)OC(=O)N[C@H](Cc1cccnc1)C(=O)N1CCCC1C(=O)NC(Cc1cccc(C#N)c1)B1OC2CC3CC(C3(C)C)C2(C)O1` (stereo partly shown) [Example 28, Boc--(D)3-Pyridylalanine-Pro--boroPhe--(m-CN)-C10 H16], the Ki in experiment [1] and in experiment [2] was less than 0.5 µM each time.
Consider `CN(C)C(Cc1ccccc1)C(=O)N1CCCC1C(=O)NC(Cc1cccc(C#N)c1)B(O)O` (single isomer, unassigned; isomer i) [Example 20, N,N-(CH3)2 --(D)Phe--Pro--boroPhe--(m-CN)--OH.HCl (ISOMER I)], for which the Ki in experiment [1] and in experiment [2] was less than 0.5 µM in each case.
Regarding “Ms--(D)Phe--Pro--boroPhe(m-CN)--OH.HCl [Example 24]”, the Ki in experiment [1] and in experiment [2] was less than 0.5 µM each time.
Turning to `CC1(C)C2CC3OB(C(Cc4cccc(C#N)c4)NC(=O)C4CCCN4C(=O)C(N)Cc4cccnc4)OC3(C)C1C2` (stereo not shown) [Example 30, H--(D)3-Pyridylalanine-Pro--boroPhe(m-CN)--C10 H16.HCl], the Ki in experiment [1] and in experiment [2] was less than 0.5 µM in each case.
